Test: Stability testing of crystal form I of Canagliflozin
Type: physicochemical
[1] = placed at 25 ± 2° C. and a humidity of RH92.5% for 30 days
[2] = placed at 40 ± 2° C. for 30 days
[3] = placed at 60 ± 2° C. for 30 days

Cc1ccc([C@@H]2O[C@H](CO)[C@@H](O)[C@H](O)[C@H]2O)cc1Cc1ccc(-c2ccc(F)cc2)s1 [crystal form I of Canagliflozin, 1-(β-D-glucopyranosyl)-4-methyl-3-[5-(4-fluorophenyl)-2-thienylmethyl]benzene]
HPLC change before placed (before being placed at 25 ± 2° C. and a humidity of RH92.5% for 30 days): 99.89% | HPLC change before placed (before being placed at 40 ± 2° C. for 30 days): 99.89% | HPLC change before placed (before being placed at 60 ± 2° C. for 30 days): 99.89% | stability (overall conclusion from the stability table): good stability | HPLC change after placed [1]: 99.89% | crystal form [1]: Crystal form I | whether the appearance changed [1]: No change | whether there being apparent moisture absorption [1]: No apparent | HPLC change after placed [2]: 99.88% | crystal form [2]: Crystal form I | whether the appearance changed [2]: No change | whether there being apparent moisture absorption [2]: No apparent | HPLC change after placed [3]: 99.87% | crystal form [3]: Crystal form I | whether the appearance changed [3]: No change | whether there being apparent moisture absorption [3]: No apparent
